Data taken from US12077503B2, “Substituted cyclic amides and their use as herbicides” (FMC CORPORATION, priority 2015, dated 2024).

Assays:
Format in all cases: in vivo
[1] = test system: pigweed (Amaranthus retroflexus); experiment: Test A preemergence; details: for Plant response rating, Pigweed: 125 g ai/ha; for Pigweed plant response rating (0 to 100 scale, 0 is no effect, 100 is complete control): 500 g ai/ha, visual injury approx. 10 d
[2] = test system: ryegrass, Italian (Italian ryegrass, Lolium multiflorum); experiment: Test A preemergence; details: for Plant response rating, Ryegrass, Italian: 125 g ai/ha; for Ryegrass, Italian plant response rating (0 to 100 scale, 0 is no effect, 100 is complete control): 500 g ai/ha, visual injury approx. 10 d
Summary of the method: (§1)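 Visual injury, scored on a 0–100 scale relative to untreated controls, was recorded about 10 d after application. Treatments were a preemergence soil spray over planted seeds or a postemergence spray on plants at the one- to two-leaf stage, 2 to 10 cm tall, all in loam soil–sand blend in the greenhouse.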

Kochia (Kochia scoparia) [3] = experiment: Test A preemergence; details: for Plant response rating, Kochia: 125 g ai/ha; for Kochia plant response rating (0 to 100 scale, 0 is no effect, 100 is complete control): 500 g ai/ha, visual injury approx. 10 d
Summary of the method: as §1

[4] = test system: giant foxtail (Setaria faberii); experiment: Test A preemergence; details: for Plant response rating, Foxtail, Giant: 125 g ai/ha; for Foxtail, Giant plant response rating (0 to 100 scale, 0 is no effect, 100 is complete control): 500 g ai/ha, visual injury approx. 10 d
Summary of the method: as §1

[5] = test system: ragweed (common ragweed, Ambrosia elatior); experiment: Test A preemergence; details: for Plant response rating, Ragweed: 125 g ai/ha; for Ragweed plant response rating (0 to 100 scale, 0 is no effect, 100 is complete control): 500 g ai/ha, visual injury approx. 10 d
Summary of the method: as §1

[6] = test system: barnyardgrass (Echinochloa crus-galli); experiment: Test A preemergence; details: for Plant response rating, Barnyardgrass: 125 g ai/ha; for Barnyardgrass plant response rating (0 to 100 scale, 0 is no effect, 100 is complete control): 500 g ai/ha, visual injury approx. 10 d
Summary of the method: as §1

rice (Oryra sativa) = experiment: Test B flooded paddy test; details: Flood, 250 g ai/ha; 0 to 100 scale where 0 is no effect and 100 is complete control; 13 to 15 d
Summary of the method: (§2)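 Compound goes directly into floodwater once pots are flooded 3 cm above soil, targeting plants at two leaves; the water depth is then held for the test duration. Plants sit 13–15 d in a greenhouse and are rated visually, 100 denoting complete control.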

[7] = test system: ducksalad (Heteranthera limosa); experiment: Test B flooded paddy test; details: Flood, 250 g ai/ha; 0 to 100 scale where 0 is no effect and 100 is complete control; 13 to 15 d
Summary of the method: as §2

[8] = test system: sedge, umbrella (small-flower umbrella sedge, Cyperus difformis); experiment: Test B flooded paddy test; details: Flood, 250 g ai/ha; 0 to 100 scale where 0 is no effect and 100 is complete control; 13 to 15 d
Summary of the method: as §2

[9] = test system: barnyardgrass (Echinochloa crus-galli); experiment: Test B flooded paddy test; details: Flood, 250 g ai/ha; 0 to 100 scale where 0 is no effect and 100 is complete control; 13 to 15 d
Summary of the method: as §2

[10] = test system: pigweed (Amaranthus retroflexus); experiment: Test A postemergence; details: for Pigweed plant response rating: 125 g ai/ha, visual injury rating on 0 to 100 scale (0 no effect, 100 complete control), approx. 10 d; for Plant response rating, Pigweed: 500 g ai/ha
Summary of the method: as §1

[11] = test system: ryegrass, Italian (Italian ryegrass, Lolium multiflorum); experiment: Test A postemergence; details: for Ryegrass, Italian plant response rating: 125 g ai/ha, visual injury rating on 0 to 100 scale (0 no effect, 100 complete control), approx. 10 d; for Plant response rating, Ryegrass, Italian: 500 g ai/ha
Summary of the method: as §1

Kochia (Kochia scoparia) [12] = experiment: Test A postemergence; details: for Kochia plant response rating: 125 g ai/ha, visual injury rating on 0 to 100 scale (0 no effect, 100 complete control), approx. 10 d; for Plant response rating, Kochia: 500 g ai/ha
Summary of the method: as §1

[13] = test system: blackgrass (Alopecurus myosuroides); experiment: Test A postemergence; details: for Blackgrass plant response rating: 125 g ai/ha, visual injury rating on 0 to 100 scale (0 no effect, 100 complete control), approx. 10 d; for Plant response rating, Blackgrass: 500 g ai/ha
Summary of the method: as §1

[14] = test system: giant foxtail (Setaria faberii); experiment: Test A postemergence; details: for Foxtail, Giant plant response rating: 125 g ai/ha, visual injury rating on 0 to 100 scale (0 no effect, 100 complete control), approx. 10 d; for Plant response rating, Foxtail, Giant: 500 g ai/ha
Summary of the method: as §1

[15] = test system: wheat (Triticum aestivum); experiment: Test A postemergence; details: for Wheat plant response rating: 125 g ai/ha, visual injury rating on 0 to 100 scale (0 no effect, 100 complete control), approx. 10 d; for Plant response rating, Wheat: 500 g ai/ha
Summary of the method: as §1

[16] = test system: ragweed (common ragweed, Ambrosia elatior); experiment: Test A postemergence; details: for Ragweed plant response rating: 125 g ai/ha, visual injury rating on 0 to 100 scale (0 no effect, 100 complete control), approx. 10 d; for Plant response rating, Ragweed: 500 g ai/ha
Summary of the method: as §1

corn (Zea mays) = experiment: Test A postemergence; details: for Corn plant response rating: 125 g ai/ha, visual injury rating on 0 to 100 scale (0 no effect, 100 complete control), approx. 10 d; for Plant response rating, Corn: 500 g ai/ha
Summary of the method: as §1

[17] = test system: Galium (catchweed bedstraw, Galium aparine); experiment: Test A postemergence; details: for Galium plant response rating: 125 g ai/ha, visual injury rating on 0 to 100 scale (0 no effect, 100 complete control), approx. 10 d; for Plant response rating, Galium: 500 g ai/ha
Summary of the method: as §1

[18] = test system: barnyardgrass (Echinochloa crus-galli); experiment: Test A postemergence; details: for Barnyardgrass plant response rating: 125 g ai/ha, visual injury rating on 0 to 100 scale (0 no effect, 100 complete control), approx. 10 d; for Plant response rating, Barnyardgrass: 500 g ai/ha
Summary of the method: as §1

[19] = Preemergence, visual injury after approximately 10 d, 0 to 100 scale where 0 is no effect and 100 is complete control
[20] = Postemergence, 0 to 100 scale where 0 is no effect and 100 is complete control
[21] = preemergence, 0 to 100 scale (0 no effect, 100 complete control)
[22] = postemergence, 0 to 100 scale, 0 no effect, 100 complete control

SMILES	Pigweed plant response rating (0 to 100 scale, 0 is no effect, 100 is complete control) ([1]; Preemergence)	Ryegrass, Italian plant response rating (0 to 100 scale, 0 is no effect, 100 is complete control) ([2]; Preemergence)	Kochia plant response rating (0 to 100 scale, 0 is no effect, 100 is complete control) (Kochia (Kochia scoparia) [3]; Preemergence)	Foxtail, Giant plant response rating (0 to 100 scale, 0 is no effect, 100 is complete control) ([4]; Preemergence)	Ragweed plant response rating (0 to 100 scale, 0 is no effect, 100 is complete control) ([5]; Preemergence)	Barnyardgrass plant response rating (0 to 100 scale, 0 is no effect, 100 is complete control) ([6]; Preemergence)	Plant response rating, Rice (rice (Oryra sativa))	Plant response rating, Ducksalad [7]	Plant response rating, Sedge, Umbrella [8]	Plant response rating, Barnyardgrass [9]	Pigweed plant response rating ([10]; postemergence)	Ryegrass, Italian plant response rating ([11]; postemergence)	Kochia plant response rating (Kochia (Kochia scoparia) [12]; postemergence)	Blackgrass plant response rating ([13]; postemergence)	Foxtail, Giant plant response rating ([14]; postemergence)	Wheat plant response rating ([15]; postemergence)	Ragweed plant response rating ([16]; postemergence)	Corn plant response rating (corn (Zea mays); postemergence)	Galium plant response rating ([17]; postemergence)	Barnyardgrass plant response rating ([18]; postemergence)	other results
O=C(Nc1cccc(F)c1F)C1C(=O)N(CC=CBr)CC1c1cccc(C(F)(F)F)c1 (stereo not drawn) [Compound 486]	20	20	0	90	0	70	0	0	0	0	0	0	0	0	0	0	0	0	0	0	Plant response rating, Pigweed [1, 19]: 0; Plant response rating, Ryegrass, Italian [2, 19]: 0; Plant response rating, Kochia (Kochia (Kochia scoparia) [3]; [19]): 0; Plant response rating, Foxtail, Giant [4, 19]: 60; Plant response rating, Ragweed [5, 19]: 0; Plant response rating, Barnyardgrass [6, 19]: 30; Plant response rating, Pigweed [10, 20]: 40; Plant response rating, Ryegrass, Italian [11, 20]: 0; Plant response rating, Kochia (Kochia (Kochia scoparia) [12]; [20]): 0; Plant response rating, Blackgrass [13, 20]: 0; Plant response rating, Foxtail, Giant [14, 20]: 50; Plant response rating, Wheat [15, 20]: 0; Plant response rating, Ragweed [16, 20]: 0; Plant response rating, Corn (corn (Zea mays); [20]): 0; Plant response rating, Galium [17, 20]: 20; Plant response rating, Barnyardgrass [18, 20]: 40
Cc1cc(C2CNC(=O)C2C(=O)Nc2cccc(F)c2F)ccc1F (stereo not drawn) [Compound 400]	60	40	80	100	90	100	20	100	0	65	30	20	60	60	50	30	40	20	40	90	Plant response rating, Pigweed [1, 21]: 60; Plant response rating, Ryegrass, Italian [2, 21]: 30; Plant response rating, Kochia (Kochia (Kochia scoparia) [3]; [21]): 60; Plant response rating, Foxtail, Giant [4, 21]: 90; Plant response rating, Ragweed [5, 21]: 70; Plant response rating, Barnyardgrass [6, 21]: 90; Plant response rating, Pigweed [10, 22]: 50; Plant response rating, Ryegrass, Italian [11, 22]: 90; Plant response rating, Kochia (Kochia (Kochia scoparia) [12]; [22]): 70; Plant response rating, Blackgrass [13, 22]: 60; Plant response rating, Foxtail, Giant [14, 22]: 70; Plant response rating, Wheat [15, 22]: 70; Plant response rating, Ragweed [16, 22]: 50; Plant response rating, Corn (corn (Zea mays); [22]): 80; Plant response rating, Galium [17, 22]: 60; Plant response rating, Barnyardgrass [18, 22]: 90
